# Read-outs that look alike come from different tables or passages of the source.
# What was measured:
# Meloidogyne incognita [1] = experiment: Meloidogyne incognita - test (gall formation, sand, salad seedlings); format: in vivo
# Procedure: (§1) Formula for the Efficacy of the Combination of Two Compounds
# (§2) Schneider-Orelli: Formula to Calculate Corrected Efficacy % in Pesticide Trials
# Meloidogyne incognita—Test […]
# Vessels are filled with sand, a solution of the active ingredient, a suspension containing eggs and larvae of the southern root-knot nematode (Meloidogyne incognita) and salad seeds. The salad seeds germinate and the seedlings grow. Galls develop in the roots.
# After the specified period the nematicidal activity is determined on the basis of the percentage of gall formation.
# Spodoptera frugiperda = Spodoptera frugiperda - drench test (corn plants); format: in vivo
# Procedure: as §1, §2
# Spodoptera frugiperda—Drench Test
# (§3) • Solvent: 7 parts by weight of dimethylformamide • Emulsifier: 2 parts by weight of alkylaryl poly glycol ether
# (§4) In the calculation of the concentration the soil volume has to be included. […] Further test concentrations are prepared by dilution with water.
# After the specified period of time mortality in % is determined and corrected according to Schneider-Orelli's formula (see sheet 1). 100% means all the caterpillars have been killed and 0% means none of the caterpillars have been killed. The mortality values determined thus are recalculated using the Colby-formula (see sheet 1).
# Myzus persicae = Myzus persicae - drench test (cabbage plants); format: in vivo; settings: soil
# Procedure: as §1, §2
# Myzus persicae—Drench Test
# as §3, §4
# After the specified period of time mortality in % is determined. 100% means all the aphids have been killed and 0% means none of the aphids have been killed. The mortality values determined thus are recalculated using the Colby-formula (see sheet 1).
# Tetranychus urticae = Tetranychus urticae - drench test; OP-resistant (bean plants); format: in vivo; settings: for mortality at 25 ppm: Tetranychus urticae, soil, 360 h, read-out: Efficacy in % after 15 d (mortality)
# Procedure: as §1, §2
# Tetranychus urticae—Drench Test; OP-Resistant
# as §3, §4
# After the specified period of time mortality in % is determined. 100% means all the spider mites have been killed and 0% means none of the spider mites have been killed. The mortality values determined thus are recalculated using the Colby-formula (see sheet 1).
# Meloidogyne incognita [2] = experiment: Meloidogyne incognita - drench test (soil, salad seedlings); format: in vivo
# Procedure: as §1, §2
# Meloidogyne incognita—Drench Test
# • Solvent: 7 parts by weight of dimethylformamide • Emulsifier: 2.5 parts by weight of alkylarylpolyglycolether
# as §4
# The compound solution is poured into pots filled with soil (loamy sand). A suspension containing eggs and larvae of the southern root-knot nematode (Meloidogyne incognita) is added, salad seeds are spread on the soil surface and covered with quartz sand. The salad seeds germinate and the seedlings grow. Galls develop on the roots.
# After the specified period of time the nematicidal activity is determined on the basis of the percentage of gall formation. […] The activity determined thus is recalculated using the Colby-formula (see sheet 1).
# [3] = 168 h, 7 d, read-out: Efficacy in % after 7d
# [4] = 240 h, 10 d, read-out: Efficacy in % after 10d
compound,measurement,setting,value
CCOP(=O)(SC(C)CC)SC(C)CC (stereo not drawn) [Cadusafos],Efficacy in % after 14d,Meloidogyne incognita [1]; 50 ppm,0%
same,Efficacy in % after 14d,Meloidogyne incognita [1]; 100 ppm,0%
"CC(=O)Nc1ccn(-c2c(F)cccc2F)n1 [intermediate (Ia-3), N-[1-(2,6-Difluorophenyl)-1H-pyrazol-3-yl]acetamide]",logP,logP by HPLC-MS,1.33
"Nc1ccn(-c2c(F)cccc2F)n1 [intermediate (Ia-4), 1-(2,6-Difluorophenyl)-1H-pyrazole-3-amine]",logP,logP by HPLC-MS,1.13
"CN/C(=N\[N+](=O)[O-])NCc1cnc(Cl)s1 [Clothianidin, reference compound]",Efficacy in % after 6d,Spodoptera frugiperda; 2 ppm,0%
same,Efficacy in % after 4d,Spodoptera frugiperda; 10 ppm,0%
same,Efficacy in % after 6d,Spodoptera frugiperda; 10 ppm,37%
"O=C(Nc1ccn(-c2c(F)cccc2F)n1)c1ccccc1C(F)(F)F [Compound (Ia), N-[1-(2,6-difluorophenyl)-1H-pyrazol-3-yl]-2-(trifluoromethyl)benzamide]",pest or weed control at 2 ppm,Myzus persicae; [3],0%
same,pest or weed control at 20 ppm,Myzus persicae; [3],0%
same,pest or weed control at 2 ppm,Myzus persicae; [4],0%
same,pest or weed control at 20 ppm,Myzus persicae; [4],0%
same,mortality at 25 ppm,Tetranychus urticae,10%
same,Efficacy in % after 21d,Meloidogyne incognita [2]; 0.75 ppm,0%
same,logP,logP by HPLC-MS,2.68
same,Efficacy in % after 14d,Spodoptera frugiperda; 0.2 ppm,0%
same,Efficacy in % after 14d,Spodoptera frugiperda; 40 ppm,0%
same,Efficacy in % after 4d,Spodoptera frugiperda; 200 ppm,0%
same,Efficacy in % after 6d,Spodoptera frugiperda; 200 ppm,0%
same,Efficacy in % after 14d,Meloidogyne incognita [1]; 1 ppm,0%
same,Efficacy in % after 14d,Meloidogyne incognita [1]; 5 ppm,0%
same,Efficacy in % after 14d,Meloidogyne incognita [1]; 10 ppm,0%
C/C=C(\C)C(=O)O[C@H]1C[C@@H](OC(C)=O)[C@@]2(C(=O)OC)CO[C@H]3[C@@H](O)[C@@](C)([C@]45O[C@@]4(C)[C@H]4C[C@@H]5O[C@@H]5OC=C[C@@]54O)[C@H]4[C@]1(CO[C@]4(O)C(=O)OC)[C@@H]32 [Azadirachtin],Efficacy in % after 14d,Meloidogyne incognita [1]; 16 ppm,0%
N#Cc1nn(-c2c(Cl)cc(C(F)(F)F)cc2Cl)c(N)c1[S+]([O-])C(F)(F)F (stereo not drawn) [Fipronil],pest or weed control at 5 ppm,Myzus persicae; [3],15%
same,pest or weed control at 10 ppm,Myzus persicae; [3],40%
same,pest or weed control at 5 ppm,Myzus persicae; [4],50%
same,pest or weed control at 10 ppm,Myzus persicae; [4],55%
Abamectin,Efficacy in % after 14d,Meloidogyne incognita [1]; 0.02 ppm,0%
same,Efficacy in % after 14d,Meloidogyne incognita [1]; 0.08 ppm,0%
"CC(=O)NC1=NN(c2c(F)cccc2F)CC1 [intermediate (Ia-2), N-[1-(2,6-Difluorophenyl)-4,5-dihydro-1H-pyrazol-3-yl]acetamide]",logP,logP by HPLC-MS,1.46
CS/C(C)=N\OC(=O)N(C)SN(C)C(=O)O/N=C(\C)SC [Thiodicarb],Efficacy in % after 14d,Meloidogyne incognita [1]; 50 ppm,0%
"O=C(Nc1ccn(-c2ncc(F)cc2F)n1)c1ccccc1C(F)(F)F [Compound (Ib), N-[1-(3,5-difluoropyridin-2-yl)-1H-pyrazol-3-yl]-2-(trifluoromethyl)benzamide]",pest or weed control at 2 ppm,Myzus persicae; [3],0%
same,pest or weed control at 20 ppm,Myzus persicae; [3],0%
same,pest or weed control at 2 ppm,Myzus persicae; [4],0%
same,mortality at 25 ppm,"Tetranychus urticae; drench, bean plants, 25 ppm, after 15 d, single compound",0%
same,Efficacy in % after 21d,Meloidogyne incognita [2]; 0.75 ppm,55%
same,Efficacy in % after 14d,Spodoptera frugiperda; 40 ppm,0%
same,Efficacy in % after 4d,Spodoptera frugiperda; 200 ppm,0%
same,Efficacy in % after 6d,Spodoptera frugiperda; 200 ppm,0%
"O=C(Nc1cnn(-c2c(F)cccc2F)n1)c1ccccc1C(F)(F)F [Compound (Ic), N-[2-(2,6-Difluorophenyl)-2H-1,2,3-triazol-4-yl]-2-(trifluoromethyl)benzamide]",pest or weed control at 2 ppm,Myzus persicae; [3],0%
same,pest or weed control at 20 ppm,Myzus persicae; [3],0%
same,pest or weed control at 2 ppm,Myzus persicae; [4],0%
same,mortality at 25 ppm,Tetranychus urticae,0%
same,logP,logP by HPLC-MS,2.80
same,Efficacy in % after 14d,Spodoptera frugiperda; 0.2 ppm,0%
same,Efficacy in % after 14d,Spodoptera frugiperda; 0.8 ppm,0%
same,Efficacy in % after 4d,Spodoptera frugiperda; 200 ppm,0%
same,Efficacy in % after 6d,Spodoptera frugiperda; 200 ppm,0%
same,Efficacy in % after 14d,Meloidogyne incognita [1]; 0.25 ppm,0%
same,Efficacy in % after 14d,Meloidogyne incognita [1]; 1 ppm,0%
same,Efficacy in % after 14d,Meloidogyne incognita [1]; 5 ppm,0%
same,Efficacy in % after 14d,Meloidogyne incognita [1]; 10 ppm,70%
"Nc1cnn(-c2c(F)cccc2F)n1 [intermediate (Ic-8), 2-(2,6-Difluorophenyl)-2H-1,2,3-triazole-4-amine]",logP,logP by HPLC-MS,1.16
CNC(=O)c1cc(Cl)cc(C)c1NC(=O)c1cc(Br)nn1-c1ncccc1Cl [Chlorantraniliprole],pest or weed control at 0.8 ppm,"Myzus persicae; 168 h, 0.8 ppm, 7 d, read-out: Efficacy in % after 7d",10%
same,pest or weed control at 1.6 ppm,"Myzus persicae; 168 h, 1.6 ppm, 7 d, read-out: Efficacy in % after 7d",20%
same,pest or weed control at 0.4 ppm,"Myzus persicae; 240 h, 0.4 ppm, 10 d, read-out: Efficacy in % after 10d",0%
same,Efficacy in % after 14d,Spodoptera frugiperda; 0.04 ppm,66.5%
CNC(=O)Oc1cccc2c1OC(C)(C)C2 [Carbofuran],Efficacy in % after 14d,Meloidogyne incognita [1]; 50 ppm,0%
same,Efficacy in % after 14d,Meloidogyne incognita [1]; 100 ppm,0%
"O=C(NCCc1ncc(C(F)(F)F)cc1Cl)c1ccccc1C(F)(F)F [Fluopyram, reference compound]",Efficacy in % after 21d,Meloidogyne incognita [2]; 0.15 ppm,0%
"O=[N+]([O-])NC1=NCCN1Cc1ccc(Cl)nc1 [Imidacloprid, reference compound]",Efficacy in % after 6d,Spodoptera frugiperda; 10 ppm,0%
same,Efficacy in % after 4d,Spodoptera frugiperda; 50 ppm,22%
same,Efficacy in % after 6d,Spodoptera frugiperda; 50 ppm,12%
CC(C)NC(=O)N1CC(=O)N(c2cc(Cl)cc(Cl)c2)C1=O [Iprodione],Efficacy in % after 14d,Meloidogyne incognita [1]; 50 ppm,0%
same,Efficacy in % after 14d,Meloidogyne incognita [1]; 100 ppm,0%
CNC(=O)c1cc(C#N)cc(C)c1NC(=O)c1cc(Cn2nnc(C(F)(F)F)n2)nn1-c1ncccc1Cl [1-(3-chloropyridin-2-yl)-N-[4-cyano-2-methyl-6-(methylcarbamoyl)phenyl]-3-{[5-(trifluoromethyl)-2H-tetrazol-2-yl]methyl}-1H-pyrazole-5-carboxamide],pest or weed control at 0.25 ppm,Myzus persicae; [3],0%
same,pest or weed control at 0.25 ppm,Myzus persicae; [4],0%
CNC(=O)c1cc(C#N)cc(C)c1NC(=O)c1cc(Br)nn1-c1ncccc1Cl [Cyantraniliprole],pest or weed control at 0.1 ppm,Myzus persicae; [3],20%
same,pest or weed control at 0.1 ppm,Myzus persicae; [4],10%
same,Efficacy in % after 14d,Spodoptera frugiperda; 0.08 ppm,16.5%
"Nc1ccn(-c2ncc(F)cc2F)n1 [intermediate (Ib-1), 1-(3,5-Difluoropyridin-2-yl)-1H-pyrazole-3-amine]",logP,logP by HPLC-MS,0.81
"O=C(N=c1ccccn1Cc1ccc(Cl)nc1)C(F)(F)F [N-[1-[(6-chloro-3-pyridinyl)methyl]-2(1H)-pyridinylidene]-2,2,2-trifluoro-acetamide]",pest or weed control at 0.1 ppm,Myzus persicae; [3],30%
same,pest or weed control at 0.1 ppm,Myzus persicae; [4],20%
"Cc1cc(C(F)(C(F)(F)F)C(F)(F)F)ccc1NC(=O)c1cccc(I)c1C(=O)NC(C)(C)CS(C)(=O)=O [Flubendiamide, reference compound]",Efficacy in % after 14d,Spodoptera frugiperda; 4 ppm,33%
same,Efficacy in % after 14d,Spodoptera frugiperda; 8 ppm,66%
Emamectin-benzoate,Efficacy in % after 15 d (mortality),"Tetranychus urticae; drench, bean plants, 2 ppm, after 15 d, single compound",10%
